Measured values reported in patent publication US20230277533A1, “THERAPEUTIC COMBINATIONS COMPRISING UBIQUITIN-SPECIFIC-PROCESSING PROTEASE 1 (USP1) INHIBITORS AND POLY (ADP-RIBOSE) POLYMERASE (PARP) INHIBITORS” (KSQ Therapeutics, Inc., priority 2020, published 2023).

What was measured:
Assay in all cases: Colony formation (CFU) assay
Type in all cases: cell-based
BICR6 = conditions: BICR6, head and neck
How it was run: (§1)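 Under a 14-day clonogenic protocol, media bearing USP1 inhibitor, niraparib or olaparib replaced the old at day 8. Colonies were fixed, stained with crystal violet and the dye quantified at 565 nm; values were fitted to a two-parameter Hill equation.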

CAOV3 = conditions: Homo sapiens, Caov-3; CAOV3, ovary
How it was run: as §1

CFPAC1 = conditions: Homo sapiens, CFPAC-1; CFPAC1, pancreas
How it was run: as §1

CHAGOK1 = conditions: Homo sapiens, ChaGo-K-1; CHAGOK1, lung
How it was run: as §1

COV504 = conditions: COV504, ovary
How it was run: as §1

FADU = conditions: Homo sapiens, head and neck
How it was run: as §1

G292CLONEA141B1 = conditions: G292CLONEA141B1, bone
How it was run: as §1

HBCx2 = conditions: HBCx2, breast
How it was run: as §1

HBCx9 = conditions: HBCx9, breast
How it was run: as §1

HCC1937 = conditions: Homo sapiens; HCC1937, breast
How it was run: as §1

HCC1954 = conditions: Homo sapiens; HCC1954, breast
How it was run: as §1

HCC95 = conditions: Homo sapiens; HCC95, lung
How it was run: as §1

HCT15 = conditions: Homo sapiens, HCT-15; HCT15, colon
How it was run: as §1

HEC1B = conditions: Homo sapiens, HEC-1B, uterus
How it was run: as §1

HS934T = conditions: melanoma
How it was run: as §1

HSC3 = conditions: Homo sapiens, HSC-3; HSC3, head and neck
How it was run: as §1

HT1080 = conditions: Homo sapiens, HT-1080; HT1080, soft tissue
How it was run: as §1

HT144 = conditions: Homo sapiens, HT-144; HT144, skin
How it was run: as §1

HUO9 = conditions: HUO9, bone
How it was run: as §1

JHH7 = conditions: JHH7, liver
How it was run: as §1

KLE = conditions: Homo sapiens, uterus
How it was run: as §1

KM12 = conditions: Homo sapiens; KM12, colon
How it was run: as §1

KMBC2 = conditions: KMBC2, bladder
How it was run: as §1

LNCAP = conditions: Homo sapiens, prostate
How it was run: as §1

MDAMB231 = conditions: Homo sapiens, MDA-MB-231; MDAMB231, breast
How it was run: as §1

NCIH1373 = conditions: Homo sapiens, NCI-H1373; NCIH1373, lung
How it was run: as §1

NCIH1648 = conditions: Homo sapiens, NCI-H1648; NCIH1648, lung
How it was run: as §1

NCIH1651 = conditions: Homo sapiens, NCI-H1651; NCIH1651, lung
How it was run: as §1

NCIH838 = conditions: Homo sapiens, NCI-H838; NCIH838, lung
How it was run: as §1

OE19 = conditions: Homo sapiens; OE19, esophagus
How it was run: as §1

OVMANA = conditions: ovary
How it was run: as §1

OVSAHO = conditions: Homo sapiens, ovary
How it was run: as §1

SCC15 = conditions: Homo sapiens, SCC-15; SCC15, head and neck
How it was run: as §1

SKOV3_BRCA1null = conditions: ovary
How it was run: as §1

SNGM = conditions: uterus
How it was run: as §1

SNU626 = conditions: SNU626, nervous system
How it was run: as §1

SNU668 = conditions: SNU668, stomach
How it was run: as §1

VMRCRCW = conditions: kidney
How it was run: as §1

Row | SMILES | IC50 (BICR6) [µM] | IC50 (CAOV3) [µM] | IC50 (CFPAC1) [µM] | IC50 (CHAGOK1) [µM] | IC50 (COV504) [µM] | IC50 (FADU) [µM] | IC50 (G292CLONEA141B1) [µM] | IC50 (HBCx2) [µM] | IC50 (HBCx9) [µM] | IC50 (HCC1937) [µM] | IC50 (HCC1954) [µM] | IC50 (HCC95) [µM] | IC50 (HCT15) [µM] | IC50 (HEC1B) [µM] | IC50 (HS934T) [µM] | IC50 (HSC3) [µM] | IC50 (HT1080) [µM] | IC50 (HT144) [µM] | IC50 (HUO9) [µM] | IC50 (JHH7) [µM] | other results
1 | NC(=O)c1cccc2cn(-c3ccc([C@@H]4CCCNC4)cc3)nc12 [Niraparib, niraparib, reference compound] | 0.149 | 0.241 | > 0.3 | > 0.3 | 0.00417 | > 0.3 | > 0.3 | > 0.3 | 0.0558 | 0.244 | > 0.3 | > 0.3 | > 0.3 | > 0.3 | > 0.3 | > 0.3 | > 0.3 | 0.114 | > 0.3 | > 0.3 | IC50 (KLE): > 0.3 µM; IC50 (KM12): 0.106 µM; IC50 (KMBC2): > 0.3 µM; IC50 (LNCAP): > 0.3 µM; IC50 (MDAMB231): > 0.3 µM; IC50 (NCIH1373): > 0.3 µM; IC50 (NCIH1648): > 0.3 µM; IC50 (NCIH1651): 0.0324 µM; IC50 (NCIH838): > 0.3 µM; IC50 (OE19): > 0.3 µM; IC50 (OVMANA): > 0.3 µM; IC50 (OVSAHO): > 0.3 µM; IC50 (SCC15): > 0.3 µM; IC50 (SKOV3_BRCA1null): 0.262 µM; IC50 (SNGM): > 0.3 µM; IC50 (SNU626): > 0.3 µM; IC50 (SNU668): > 0.3 µM; IC50 (VMRCRCW): > 0.3 µM
2 | COc1ncnc(C2CC2)c1-c1ncc2cnn(Cc3ccc(-c4nc(C(F)(F)F)cn4C)cc3)c2n1 [Formula II, 6-(4-cyclopropyl-6-methoxypyrimidin-5-yl)-1-(4-(1-methyl-4-(trifluoromethyl)-1H-imidazol-2-yl)benzyl)-1H-pyrazolo[3,4-d]pyrimidine] | > 0.3 | 0.0278 | > 0.3 | > 0.3 | 0.00663 | > 0.3 | > 0.3 | > 0.3 | > 0.3 | > 0.3 | > 0.3 | > 0.3 | > 0.3 | > 0.3 | > 0.3 | > 0.3 | > 0.3 | 0.0843 | > 0.3 | > 0.3 | IC50 (KLE): > 0.3 µM; IC50 (KM12): 0.22 µM; IC50 (KMBC2): > 0.3 µM; IC50 (LNCAP): > 0.3 µM; IC50 (MDAMB231): > 0.3 µM; IC50 (NCIH1373): > 0.3 µM; IC50 (NCIH1648): > 0.3 µM; IC50 (NCIH1651): 0.0857 µM; IC50 (NCIH838): > 0.3 µM; IC50 (OE19): > 0.3 µM; IC50 (OVMANA): > 0.3 µM; IC50 (OVSAHO): > 0.3 µM; IC50 (SCC15): 0.028 µM; IC50 (SKOV3_BRCA1null): > 0.3 µM; IC50 (SNGM): > 0.3 µM; IC50 (SNU626): > 0.3 µM; IC50 (SNU668): > 0.3 µM; IC50 (VMRCRCW): > 0.3 µM
